The values below are quoted from earlier work in US7064136B2, “Compounds” (AstraZeneca AB, priority 2000, dated 2006).

Structures are written as SMILES. Where two headings read alike, the source gives them in different places. Non-standard residues stand in square brackets, D forms with d. Residues, ends and D or L forms follow the SMILES beside them. *: point of attachment. Cyclohexanecarbonyl = O=C(C1CCCCC1)*

For data set [1], the system named is Neurokinin receptor. Conditions: Elevated plus-maze.
Data set [2] relates to Neurokinin receptor. Conditions: Forced swim test (depression model); anti-depressant (only at 30 mg/kb bid); Vassout et al Neuropeptides 26/S1:38, 1994.
Data set [3] concerns Neurokinin receptor.
In data set [4] the test system is Neurokinin receptor. Conditions: Light-dark box.
In data set [5] the test system is Neurokinin receptor. Particulars: Marmoset human intruder; Walsh et al., Psychopharmacology 121:186-191, 1995.
Where [6] appears, read: Teixeira et al., Eur J Pharmacol 5;311(1):7-14, 1996.
The mark [7] stands for this setting: Stratton et al., Eur. J. Pharmacol. 250: R11-12, 1993.
Setting [8] is: Walsh et al., Psychopharmacology 121:186-191, 1995.

With `Cc1cc(C)cc(C(=O)N2CC[C@H](NCc3ccnc4ccccc34)C[C@H]2Cc2ccccc2)c1` [CGP 49823], the Outcome entry in the data set with Neurokinin receptor [1] (Vassout et al Neuropeptides 26/S1:38, 1994) is “inactive anti-”; with Neurokinin receptor [2], “depressant”; in the data set on Neurokinin receptor [3] (Social interaction test, Vassout et al Neuropeptides 26/S1:38, 1994), “anxiolytic”; in the data set with Neurokinin receptor [3] (Social interaction, File Pharm Bio B 58(3):747-752, 1997), “anxiolytic”.

Consider `CN(Cc1ccccc1)C(=O)[C@H](Cc1ccc2ccccc2c1)NC(=O)[C@@H]1C[C@@H](O)CN1C(=O)c1cn(C)c2ccccc12` [FK888], for which the Outcome result with Neurokinin receptor [1] (setting [6]) is recorded as “anxiolytic”.

Regarding `C[C@H](NC(=O)CNC(=O)C1CCCCC1)C(=O)N[C@H](Cc1c[nH]c2ccccc12)C(=O)N[C@@H](Cc1ccccc1)C(=O)N(C)C` [GR100679] (Cyclohexanecarbonyl-GA[dW]F-NMe2), the Outcome result in the data set with Neurokinin receptor [4] (setting [7]) is reported as “anxiolytic”.

Consider `COC1(C[S@@+]([O-])c2ccccc2)CCN(CCc2c[nH]c3ccc(F)cc23)CC1` [GR159897], for which the Outcome result in the data set with Neurokinin receptor [5] and in the data set on Neurokinin receptor [4] (setting [8]) was “anxiolytic” throughout.

As for `CC(=O)NC1(c2ccccc2)CCN(CC[C@H](CN(C)C(=O)c2ccccc2)c2ccc(Cl)c(Cl)c2)CC1` [SR48968], the Outcome result in the data set with Neurokinin receptor [5], in the data set with Neurokinin receptor [1] (setting [6]), with Neurokinin receptor [4] (setting [7]) and in the data set with Neurokinin receptor [4] (setting [8]) was “anxiolytic” in each case.
